Reference: patent US20080194646A1, “Methods For Avoiding Edema in the Treatment of Metabolic, Inflammatory, and Cardiovascular Disorders” (priority 2005, published 2008)

System: C57BL/6j ob/ob Mice
Experiment: anti-diabetic activity in C57BL/6j ob/ob mice (Example 20)
Type: in vivo
Conditions: oral gavage once a day for 1-4 days; for Potency: glucose lowering, plasma glucose 6 hours after each dose
Description: The anti-diabetic activities of the compounds were evaluated in the C57BL/6j ob/ob Mice model. Male, 7-9 weeks old, C57BL/6J ob/ob mice were purchased from The Jackson Laboratory (Bar Harbor, Me., USA). Animals were housed (4-5 mice/cage) under standard laboratory conditions at 22±3° C. temperature and 50±20% relative humidity, and were maintained on a diet of Purina rodent chow and water ad libitum. Prior to treatment, blood was collected from the tail vein of each animal. Mice that had non-fasting plasma glucose levels between 250 and 500 mg/dl were used. Each treatment group consisted of 8-10 mice that were distributed so that the mean glucose levels were equivalent in each group at the start of the study. Mice were dosed orally by gavage once a day for 1-4 days with vehicle and one or more dose of test compound at a dose ranging from 5 to 125 mg/kg. Compounds were delivered in a liquid formulation containing 5% (v/v) dimethyl sulfoxide (DMSO), 1% (v/v) Tween 80® and 0.9% (w/v) methylcellulose. The gavage volume was 10 ml/kg. […] Food intake and body weight were measured daily. Plasma glucose concentrations were determined colorimetrically using a commercial glucose oxidase method (Sigma Chemical Co, St. Louis, Mo., USA). Significant difference between groups (comparing drug-treated to vehicle-treated) was evaluated using the Student unpaired t-test. Table 1 provides the relative potency of some selected compounds of the invention.

SMILES | Potency | Insulin Level compared with vehicle
O=C(O)C(Oc1ccc(C(F)(F)F)cc1)c1ccc(C(F)(F)F)cc1 (stereo not shown) [Compound 83] | ++ (effective for glucose lowering at the dose of ≦125 mg/kg) | Lower
O=C(O)C(Oc1ccc(C(F)(F)F)cc1Cl)c1cccc(C(F)(F)F)c1 (stereo not shown) [Compound 85] | ++ (effective for glucose lowering at the dose of ≦125 mg/kg) | Lower
O=C(O)C(Oc1cccc(C(F)(F)F)c1)c1ccc(C(F)(F)F)cc1 (stereo not shown) [Compound 86] | – | Lower
O=C(O)C(Oc1ccc(C(F)(F)F)cc1Cl)c1ccc(C(F)(F)F)cc1 (stereo not shown) [Compound 89] | ++ (effective for glucose lowering at the dose of ≦125 mg/kg) | Lower
O=C(O)C(Oc1ccc(C(F)(F)F)cn1)c1cccc(C(F)(F)F)c1 (stereo not shown) [Compound 100, (3-Trifluoromethyl-phenyl)-(5-trifluoromethyl-pyridin-2-yloxy)-acetic acid] | – | Lower
CC(Oc1ccc(C(F)(F)F)cc1)(C(=O)O)c1cccc(C(F)(F)F)c1 (stereo not shown) [Compound 120, 2-(4-trifluoromethyl-phenoxy)-2-(3-trifluoromethyl-phenyl)-propionic acid] | – | Lower
CC(Oc1ccc(C(F)(F)F)cc1)(C(=O)O)c1ccc(C(F)(F)F)cc1 (stereo not shown) [Compound 121, 2-(4-Trifluoromethyl-phenoxy)-2-(4-trifluoromethyl-phenyl)-propionic acid] | – | Lower
OCC(Oc1ccc(C(F)(F)F)cc1)c1ccc(C(F)(F)F)cc1 (stereo not shown) [Compound 128] | ++ (effective for glucose lowering at the dose of ≦125 mg/kg) | Lower
CC(=O)NCCOC(=O)C(Oc1ccc(C(F)(F)F)cc1)c1cccc(C(F)(F)F)c1 (stereo not shown) [Compound 136, (4-trifluoromethyl-phenoxy)-(3-trifluoromethyl-phenyl)-acetic acid 2-acetylamino-ethyl ester] | – | Lower
CC(=O)NCCOC(=O)C(Oc1cccc(C(F)(F)F)c1)c1ccc(C(F)(F)F)cc1 (stereo not shown) [Compound 142] | – | Lower
CC(=O)NCCOC(=O)C(Oc1cc(C(F)(F)F)cc(C(F)(F)F)c1)c1ccc(C(F)(F)F)cc1 (stereo not shown) [Compound 143] | – | Lower
CC(=O)NCCOC(=O)C(Oc1cccc(C(F)(F)F)c1)c1cccc(C(F)(F)F)c1 (stereo not shown) [Compound 144] | – | Lower
CC(=O)NCCOC(=O)C(Oc1ccc(C(F)(F)F)cc1)c1ccc(C(F)(F)F)cc1 (stereo not shown) [Compound 145] | – | Lower
CC(=O)NCCOC(=O)C(Oc1ccccc1C(F)(F)F)c1ccc(C(F)(F)F)cc1 (stereo not shown) [Compound 146] | – | Lower
CC(=O)NCCOC(=O)C(Oc1cccc(C(F)(F)F)c1)c1ccccc1C(F)(F)F (stereo not shown) [Compound 147] | – | Lower
